Measured values taken from patent publication US12629370B2, “Treatment of prostate cancer” (Sumitomo Pharma Co., Ltd., priority 2016, dated 2026).
Entries after “also recorded” stand apart in the source; their conditions may differ.

Columns and labels:
[1] = test system: serum testosterone; assay: Example 8: serum testosterone in men with advanced prostate cancer, versus leuprolide acetate; format: in vivo, human; conditions: for Testosterone Mean (Std Dev) / Testosterone Median / Median testosterone: Leuprorelin Q12W
Excerpt: Eligible men were aged ≥18 years with a histologically confirmed diagnosis of prostate adenocarcinoma, and were candidates for ADT for the management of hormone-sensitive prostate cancer with one of the following clinical disease states: advanced localized disease not suitable for primary surgical or radiation therapy; evidence of PSA biochemical or clinical relapse following primary surgery or radiation therapy of curative intent; or newly diagnosed metastatic disease that was asymptomatic and without visceral involvement. […] Patients with advanced, localized MON1 or M1 disease with clinically significant symptoms or visceral involvement, who required immediate GnRH therapy, chemotherapy, or radiation therapy were not eligible for the trial.
Serum testosterone levels were measured at each visit.

[2] = test system: PSA; assay: Example 8: PSA response; format: in vivo, human
Excerpt: Eligible men were aged ≥18 years with a histologically confirmed diagnosis of prostate adenocarcinoma, and were candidates for ADT for the management of hormone-sensitive prostate cancer with one of the following clinical disease states: advanced localized disease not suitable for primary surgical or radiation therapy; evidence of PSA biochemical or clinical relapse following primary surgery or radiation therapy of curative intent; or newly diagnosed metastatic disease that was asymptomatic and without visceral involvement. Additional inclusion criteria at screening included: eugonadal serum testosterone >150 ng/dl (5.2 nmol/L); serum PSA concentration >2 ng/ml (or, when applicable, >0.2 ng/ml following radical prostatectomy or >2 ng/mL above the post-radiotherapy nadir following radiotherapy); body mass index ≥18.0 at screening and/or baseline (i.e., the subject's BMI prior to treatment commencing); and Eastern Cooperative Oncology Group (ECOG) performance status of 0 or 1. Patients with advanced, localized MON1 or M1 disease with clinically significant symptoms or visceral involvement, who required immediate GnRH therapy, chemotherapy, or radiation therapy were not eligible for the trial.
PSA levels were measured at each visit.

[3] = test system: FSH; assay: Example 8: FSH levels; format: in vivo, human; conditions: for FSH Mean (Std Dev) / FSH Median: Leuprorelin Q12W;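 for all read-outs here: FSH determined at every study visit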
[4] = test system: patients with advanced prostate cancer; assay: Example 8: quality of life, Aging Male Survey (AMS); format: in vivo, human; conditions: Leuprorelin Q12W
Protocol: Quality of life (QoL) was assessed throughout the study and the follow-up period. The 25-item Prostate Cancer Module of the European Organization for Research and Treatment of Cancer Quality of Life Questionnaire (EORTC QLQ-PR25), Aging Male Survey (AMS), and core 30-item EORTC Quality of Life Questionnaire (EORTC QLQ-C30) were completed at screening, day 1 of weeks 5, 13, 25, 37, and 49, and, if applicable, at the follow-up visits.

[5] = test system: patients with advanced prostate cancer; assay: Example 8: treatment-emergent adverse events (safety population)
Protocol: The core tablets were coated with a film coating comprising hypromellose 2910 (21.36 mg), titanium dioxide (2.4 mg), and red ferric oxide (0.06 mg).
For patients receiving leuprolide acetate (leuprorelin), on-treatment study visits occurred at baseline (day 1, week 1), day 1 of weeks 2, 3, and 5, and then every 4 weeks until week 25, and then at 12 week intervals (week 37 and 49). Patients on leuprorelin received their final injection at week 37, day 1, and the week 49, day 1 visit was considered the end of leuprorelin exposure. Patients receiving leuprorelin at visits at 16 (EOT), 20 (follow-up visit), and 24 (EOS) weeks after the last leuprorelin injection.
Efficacy and safety analyses were conducted using a safety population (received ≥1 dose of study drug). […] Safety was assessed by recording the incidence, severity, and types of treatment-emergent adverse events; by physical examination (including slit lamp examination of the anterior eye); and by evaluating changes from baseline in weight, vital signs, 12-lead electrocardiogram (ECG), and clinical laboratory parameters. […] Adverse events were coded using the Medical Dictionary for Regulatory Activities version 19.0 and graded according to National Cancer Institute Common Terminology Criteria version 4.03 (Tables 7 and 8). Safety-related haematology, chemistry, and urinalysis measurements were taken at each study visit and analysed at a central laboratory (LabCorp). Phospholipidosis was assessed as part of the safety assessments.

SMILES: CCNC(=O)[C@@H]1CCCN1C(=O)[C@H](CCCNC(=N)N)NC(=O)[C@H](CC(C)C)NC(=O)[C@@H](CC(C)C)NC(=O)[C@H](Cc1ccc(O)cc1)NC(=O)[C@H](CO)NC(=O)[C@H](Cc1c[nH]c2ccccc12)NC(=O)[C@H](Cc1c[nH]cn1)NC(=O)[C@@H]1CCC(=O)N1 [Leuprorelin, leuprolide acetate]
- Testosterone Mean (Std Dev) ([1]; Baseline): 11.363 (5,0204) nmol/L
- Testosterone Median ([1]; Baseline): 11.120 nmol/L
- Median testosterone ([1]; EOS): 13.5 ng/dL
- Median testosterone ([1]; EOT): 9.8 ng/dL
- Testosterone Mean (Std Dev) ([1]; End of Study): 1.695 (3.0345) nmol/L
- Testosterone Median ([1]; End of Study): 0.470 nmol/L
- Testosterone Mean (Std Dev) ([1]; End of Treatment): 0.641 (0.9616) nmol/L
- Testosterone Median ([1]; End of Treatment): 0.340 nmol/L
- Testosterone Mean (Std Dev) ([1]; Follow-Up): 0.992 (2.2948) nmol/L
- Testosterone Median ([1]; Follow-Up): 0.340 nmol/L
- Median testosterone ([1]; Follow-up visit): 9.8 ng/dL
- Testosterone Mean (Std Dev) ([1]; Week 49, Day 1): 0.478 (0.6313) nmol/L
- Testosterone Median ([1]; Week 49, Day 1): 0.300 nmol/L
- course of serum testosterone levels ([1]; leuprolide acetate 22.5 mg SC): rose during the first 1-2 weeks of therapy then declined to castration levels by Week 5 Day 1; also recorded: rose during the first 1 to 2 weeks of therapy then declined to castrate levels by Week 5 Day 1
- Median time from first dose to PSA nadir ([2]; Leuprolide Q12W): 20.5 Weeks
- patients with ≥50% serum PSA reduction ([2]; after 4 weeks of treatment): 20%
- patients with ≥90% serum PSA reduction ([2]; after 4 weeks of treatment): 0%
- FSH Mean (Std Dev) ([3]; Baseline): 19.688 (19.1894) IU/L
- FSH Median ([3]; Baseline): 14.500 IU/L
- FSH Mean (Std Dev) ([3]; Week 2, Day 1): 7.650 (5.4542) IU/L
- FSH Median ([3]; Week 2, Day 1): 5.150 IU/L
- FSH Mean (Std Dev) ([3]; Week 5, Day 1): 2.946 (1.4428) IU/L
- FSH Median ([3]; Week 5, Day 1): 2.550 IU/L
- FSH Mean (Std Dev) ([3]; Week 13, Day 1): 4.625 (2.5594) IU/L
- FSH Median ([3]; Week 13, Day 1): 3.600 IU/L
- FSH Mean (Std Dev) ([3]; Week 25, Day 1): 5.043 (2.8221) IU/L
- FSH Median ([3]; Week 25, Day 1): 4.400 IU/L
- FSH Mean (Std Dev) ([3]; Week 49, Day 1): 5.145 (2.8201) IU/L
- FSH Median ([3]; Week 49, Day 1): 4.250 IU/L
- median FSH ([3]; after 48 weeks of treatment): ~4.2 mIU/mL
- AMS total score, mean ([4]; Baseline): 28.3
- AMS total score after treatment, mean (95% CI) percent change from baseline ([4]; EOS): 49.9 (21.0-78.7) %
- AMS total score after treatment, mean (95% CI) percent change from baseline ([4]; EOT): 61.0 (22.7-99.2) %
- AMS total score after treatment, mean (95% CI) percent change from baseline ([4]; Follow-up): 53.8 (18.2-89.4) %
- AMS total score, mean percent change from baseline ([4]; W5, D1): 10.1%
- AMS total score, mean percent change from baseline ([4]; W13, D1): 21.9%
- AMS total score, mean percent change from baseline ([4]; W25, D1): 47.0%
- AMS total score, mean percent change from baseline ([4]; W37, D1): 49.4%
- AMS total score, mean percent change from baseline ([4]; W49, D1): 60.0%
- Cerebral haemorrhage, Grade ≥3 ([5]; Leuprorelin Q12W): 0 n (%)
- Cerebrovascular accident, Grade ≥3 ([5]; Leuprorelin Q12W): 0 n (%)
- Death (Table 7) ([5]; Leuprorelin Q12W): 1 (4) n (%)
- Death, Grade ≥3 (Table 8) ([5]; Leuprorelin Q12W): 0 n (%)
- Musculoskeletal pain, Grade ≥3 ([5]; Leuprorelin Q12W): 0 n (%)
- Sudden death, Grade ≥3 ([5]; Leuprorelin Q12W): 0 n (%)
- Acute coronary syndrome, Grade ≥3 ([5]; in vivo): 0 n (%)
- Adverse event resulting in study drug discontinuation ([5]; in vivo): 0 n (%)
- Alanine aminotransferase increased, Grade ≥3 ([5]; in vivo): 0 n (%)
- Any adverse event ([5]; in vivo): 23 (96) n (%)
- Arthralgia, Grade ≥3 (Table 8) ([5]; in vivo): 0 n (%)
- Aspartate aminotransferase increased, Grade ≥3 ([5]; in vivo): 0 n (%)
- Atrial flutter, Grade ≥3 ([5]; in vivo): 0 n (%)
- Bladder cancer, Grade ≥3 ([5]; in vivo): 0 n (%)
- Cervical vertebral fracture, Grade ≥3 ([5]; in vivo): 0 n (%)
- Diabetes mellitus, Grade ≥3 ([5]; in vivo): 1 (4) n (%)
- Drug-related adverse event ([5]; in vivo): 18 (75) n (%)
- Fatigue, Grade ≥3 (Table 8) ([5]; in vivo): 0 n (%)
- Gamma-glutamyltransferase increased, Grade ≥3 ([5]; in vivo): 0 n (%)
- Grade ≥3 adverse event (Table 7) ([5]; in vivo): 2 (8) n (%)
- Hypercalcaemia, Grade ≥3 ([5]; in vivo): 0 n (%)
- Hypertension, Grade ≥3 ([5]; in vivo): 0 n (%)
- Hypotension, Grade ≥3 ([5]; in vivo): 0 n (%)
- Inguinal hernia, Grade ≥3 ([5]; in vivo): 0 n (%)
- Joint dislocation, Grade ≥3 ([5]; in vivo): 0 n (%)
- Metastases to bone, Grade ≥3 ([5]; in vivo): 0 n (%)
- Myocardial infarction, Grade ≥3 ([5]; in vivo): 1 (4) n (%)
- Non-cardiac chest pain, Grade ≥3 ([5]; in vivo): 0 n (%)
- Osteoarthritis, Grade ≥3 ([5]; in vivo): 0 n (%)
- Patients with at least 1 Grade ≥3 adverse events (Table 8) ([5]; in vivo): 2 (8) n (%)
- Procedural pain, Grade ≥3 ([5]; in vivo): 0 n (%)
- Sepsis, Grade ≥3 ([5]; in vivo): 0 n (%)
- Serious adverse event ([5]; in vivo): 2 (8) n (%)
- Syncope, Grade ≥3 ([5]; in vivo): 0 n (%)
- Transient ischaemic attack, Grade ≥3 ([5]; in vivo): 0 n (%)
- Urinary tract infection, Grade ≥3 ([5]; in vivo): 0 n (%)
- hot flush (most common adverse event), patients ([5]; in vivo): 15 (63%) n (%)
